Laboratory results taken from the CheMixHub drug solubility set.

Test: xn = mol fraction of the nth substance listed, in the solute-free solvent

NC(=O)NC1NC(=O)NC1=O (stereo not given) + OCCO + CO
solubility (g/100 g solution)
Conditions	288.15 K	293.15 K	298.15 K	303.15 K	308.15 K	313.15 K	318.15 K	323.15 K	328.15 K	333.15 K
x2 = 0.154	0.124	0.146	0.174	0.21	0.242	0.287	0.338	0.396	0.461	0.524
x2 = 0.326	0.188	0.22	0.268	0.336	0.395	0.438	0.508	0.566	0.651	0.732
x2 = 0.521	0.305	0.338	0.387	0.447	0.531	0.613	0.66	0.756	0.83	0.938
x2 = 0.744	0.455	0.481	0.55	0.634	0.702	0.78	0.851	1	1.09	1.25

CCOc1ccccc1C(N)=O + CC#N + CC(C)O
solubility (g/100 g solution)
Conditions	x2 = 0.1	x2 = 0.2	x2 = 0.3	x2 = 0.4	x2 = 0.5	x2 = 0.6	x2 = 0.7	x2 = 0.8	x2 = 0.9
298.15 K	4.36	5.28	6.05	6.41	6.8	6.66	6.22	5.59	4.71
303.15 K	5.5	6.58	7.52	8.13	8.55	8.45	7.99	7.3	6.12
308.15 K	6.49	7.95	9.11	10.1	10.4	10.5	10.1	9.2	7.99
313.15 K	8.08	9.85	11.3	12.4	13	13	12.6	11.7	9.97
318.15 K	10.2	12.3	14.1	15.4	16.1	16.2	15.6	14.4	12.6
323.15 K	13	15.5	17.7	19.2	20.1	20.3	19.6	18.3	16.1

CC1CCC2C(C)C(OC(=O)CCC(=O)O)OC3OC4(C)CCC1C32OO4 (stereo not given) + CC(C)O + O
solubility (g/100 g solution)
Conditions	278.15 K	283.15 K	288.15 K	293.15 K	298.15 K	303.15 K	308.15 K	313.15 K	318.15 K
x2 = 0.03232	0.0811	0.106	0.134	0.171	0.208	0.263	0.325	0.397	0.486
x2 = 0.06978	0.226	0.289	0.358	0.447	0.536	0.663	0.804	0.965	1.16
x2 = 0.114	0.47	0.591	0.72	0.884	1.05	1.27	1.52	1.8	2.13
x2 = 0.1666	0.786	0.985	1.18	1.43	1.68	2.02	2.37	2.77	3.23
x2 = 0.2309	1.12	1.38	1.65	1.97	2.31	2.72	3.18	3.68	4.25
x2 = 0.3106	1.41	1.7	2.02	2.43	2.8	3.3	3.83	4.42	5.04
x2 = 0.4116	1.62	1.95	2.3	2.75	3.15	3.69	4.24	4.87	5.54
x2 = 0.5455	1.77	2.13	2.49	2.94	3.37	3.92	4.5	5.12	5.8
x2 = 0.7299	1.84	2.17	2.53	3	3.42	3.96	4.53	5.15	5.78

O=C(NC(C(=O)O)c1ccccc1)OCc1ccccc1 (stereo not given) + CCO + O
solubility (g/100 g solution)
Conditions	x2 = 0.1	x2 = 0.2	x2 = 0.3	x2 = 0.4	x2 = 0.5	x2 = 0.6	x2 = 0.7	x2 = 0.8	x2 = 0.9
283.15 K	0.0534	0.628	1.49	2.83	4.36	6.29	8.19	11.1	11.8
293.15 K	0.0958	0.786	2.21	4.37	6.76	9.75	13.4	17.7	18.1
303.15 K	0.153	1.18	3.44	7.93	12.3	17.6	21.9	26.9	27.3
313.15 K	0.239	1.91	6.85	13.9	22.6	29.6	35.5	39.3	40.2
323.15 K	0.396	3.17	12.7	24	37.5	45.5	49.1	51.8	52.6

COC(=O)C(N)CS.Cl (stereo not given) + CCO + ClCCl
solubility (g/100 g solution)
Conditions	x2 = 0.05	x2 = 0.1	x2 = 0.2	x2 = 0.3	x2 = 0.4	x2 = 0.5	x2 = 0.6	x2 = 0.7	x2 = 0.8	x2 = 0.9
283.15 K	0.323	0.991	1.88	2.62	3.2	3.86	4.64	5.33	6.02	6.92
288.15 K	0.362	1.02	2.21	3.14	3.93	4.46	5.07	5.91	6.77	7.59
293.15 K	0.393	1.21	2.46	3.54	4.26	5.23	5.88	6.62	7.47	8.49
298.15 K	0.43	1.4	2.7	4.09	4.98	5.89	6.66	7.51	8.75	9.98
303.15 K	0.493	1.42	3.03	4.65	5.72	6.77	7.79	8.77	10.3	11.9

CCOc1ccccc1C(N)=O + CCO + CC#N
solubility (g/100 g solution)
Conditions	x2 = 0.1	x2 = 0.2	x2 = 0.3	x2 = 0.4	x2 = 0.5	x2 = 0.6	x2 = 0.7	x2 = 0.8	x2 = 0.9
293.15 K	3.67	4.64	5.5	6.13	6.78	6.6	6.09	5.58	4.95
298.15 K	4.87	5.98	7.15	7.99	8.56	8.45	7.95	7.21	6.29
303.15 K	6.28	7.75	8.84	9.86	10.4	10.1	9.58	8.65	7.54
308.15 K	8.19	9.9	11.3	12.4	13.1	13	12.2	11	9.7
313.15 K	10.5	12.4	14.4	15.7	16.2	16	15	13.7	11.8
318.15 K	13.3	15.6	17.7	19.2	19.9	19.5	18.3	16.5	14.7

c1ccc(-c2ccc(C(c3ccccc3)n3ccnc3)cc2)cc1 (stereo not given) + CC(C)O + O
solubility (g/100 g solution)
Conditions	278.15 K	283.15 K	288.15 K	293.15 K	298.15 K	303.15 K	308.15 K	313.15 K	318.15 K
x2 = 0.03225	0.0342	0.0473	0.0644	0.0851	0.103	0.142	0.189	0.234	0.294
x2 = 0.06974	0.0839	0.115	0.155	0.204	0.247	0.338	0.444	0.549	0.687
x2 = 0.1139	0.17	0.232	0.31	0.408	0.497	0.673	0.876	1.09	1.35
x2 = 0.1666	0.29	0.394	0.525	0.692	0.849	1.14	1.48	1.84	2.29
x2 = 0.2307	0.426	0.578	0.767	1.05	1.37	1.77	2.24	2.81	3.38
x2 = 0.3103	0.547	0.744	0.987	1.32	1.65	2.2	2.83	3.56	4.43
x2 = 0.4117	0.629	0.928	1.26	1.69	2.19	2.73	3.34	4.23	5.29
x2 = 0.5454	0.662	0.935	1.36	1.8	2.39	2.97	3.63	4.64	5.84
x2 = 0.7297	0.651	0.899	1.25	1.75	2.25	2.98	3.86	4.96	6.12

Cc1c(Br)c(=O)n(C2CCCC2)c2nc(Cl)ncc12 + C1CCOC1 + CCO
solubility (g/100 g solution)
Conditions	278.15 K	283.15 K	288.15 K	293.15 K	298.15 K	303.15 K	308.15 K	313.15 K	318.15 K	323.15 K
x2 = 0.1	0.59	0.723	0.88	1.07	1.28	1.53	1.82	2.14	2.52	2.94
x2 = 0.2	1.06	1.25	1.51	1.81	2.16	2.56	3.01	3.52	4.1	4.74
x2 = 0.3	1.49	1.8	2.16	2.58	3.05	3.6	4.21	4.9	5.66	6.51
x2 = 0.4	1.9	2.29	2.74	3.26	3.84	4.51	5.26	6.1	7.04	8.07
x2 = 0.5	2.25	2.71	3.34	3.83	4.52	5.29	6.16	7.13	8.2	9.38
x2 = 0.6	2.56	3.07	3.67	4.35	5.12	5.99	6.96	8.04	9.23	10.5
x2 = 0.7	2.85	3.42	4.08	4.83	5.68	6.64	7.71	8.9	10.2	11.7
x2 = 0.8	3.12	3.75	4.47	5.29	6.22	7.27	8.44	9.73	11.2	12.7
x2 = 0.9	3.34	4.01	4.79	5.67	6.67	7.79	9.04	10.4	11.9	13.6

CC(S)C(=O)NCC(=O)O (stereo not given) + CC(C)CO + Cc1ccccc1
solubility (g/100 g solution)
Conditions	273.15 K	278.15 K	283.15 K	288.15 K	293.15 K	298.15 K	303.15 K	308.15 K	313.15 K	318.15 K
x2 = 0.2371	0.622	0.677	0.744	0.819	0.9	0.989	1.09	1.21	1.34	1.48
x2 = 0.4531	1.14	1.3	1.45	1.64	1.87	2.12	2.37	2.63	2.92	3.35
x2 = 0.6509	1.71	1.98	2.28	2.67	3.04	3.56	4.09	4.71	5.39	6.3
x2 = 0.8325	2.92	3.45	4.01	4.57	5.19	5.87	6.57	7.38	8.31	9.34
